In PubChem BioAssay AID192 (DTP/NCI, 2004):
Where “and” joins values, the source holds several entries; their conditions need not be identical. Equal entries are not always repeated. Toxic doses and inconclusive results are not listed.

System: BDF1 mice, B16 melanoma ip, median survival T/C
Assay: NCI In Vivo Anticancer Drug Screen. Data for tumor model B16 Melanoma (intraperitoneal) in B6D2F1 (BDF1) mice
Conditions: endpoint: median survival time, higher = longer survival
Procedure, shortened: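 The ratio T/C compares compound-treated mice with vehicle-treated controls, using survival or tumor size as the endpoint in a transplantable tumor model.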

[1] = dose: 12.5 mg/kg/injection, schedule: Q01DX009 (ip), vehicle: Klucel (hydroxypropylcellulose) (HPC)
[2] = dose: 300.0 mg/kg/injection, schedule: Q01DX009 (ip), vehicle: Klucel (hydroxypropylcellulose) (HPC)
[3] = dose: 25.0 mg/kg/injection, schedule: Q01DX009 (ip), vehicle: saline with Tween-80
[4] = dose: 50.0 mg/kg/injection, schedule: Q01DX009 (ip), vehicle: saline with Tween-80
[5] = dose: 200.0 mg/kg/injection, schedule: Q01DX009 (ip), vehicle: Klucel (hydroxypropylcellulose) (HPC)
[6] = dose: 50.0 mg/kg/injection, schedule: Q01DX009 (ip), vehicle: saline
[7] = dose: 100.0 mg/kg/injection, schedule: Q01DX009 (ip), vehicle: saline
[8] = dose: 200.0 mg/kg/injection, schedule: Q01DX009 (ip), vehicle: saline with Tween-80
[9] = dose: 100.0 mg/kg/injection, schedule: Q01DX009 (ip), vehicle: Klucel (hydroxypropylcellulose) (HPC)
[10] = dose: 400.0 mg/kg/injection, schedule: Q01DX009 (ip), vehicle: Klucel (hydroxypropylcellulose) (HPC)
[11] = dose: 3.12 mg/kg/injection, schedule: Q01DX009 (ip), vehicle: Klucel (hydroxypropylcellulose) (HPC)
[12] = dose: 200.0 mg/kg/injection, schedule: Q01DX009 (ip), vehicle: saline

## Cc1[nH]ccc2c(C)c3nc4ccc(O)cc4c3cc12
dose: 2.5 mg/kg/injection, schedule: Q04DX003 (ip), vehicle: water
  T/C: 123 % of control
dose: 5.0 mg/kg/injection, schedule: Q04DX003 (ip), vehicle: water
  T/C: 121 % of control
dose: 20.0 mg/kg/injection, schedule: Q04DX003 (ip), vehicle: water
  T/C: 153 % of control
dose: 40.0 mg/kg/injection, schedule: Q04DX003 (ip), vehicle: water
  T/C: 113 % of control

## CC(c1c[nH]c2ccccc12)N1CCCCC1 (centres undefined)
[1]
  T/C: 97 % of control
dose: 25.0 mg/kg/injection, schedule: Q01DX009 (ip), vehicle: Klucel (hydroxypropylcellulose) (HPC)
  T/C: 95 % of control
dose: 50.0 mg/kg/injection, schedule: Q01DX009 (ip), vehicle: Klucel (hydroxypropylcellulose) (HPC)
  T/C: 98 % of control

## O=[N+]([O-])O.[NH-]C1CCCCC1[NH-].[NH-]C1CCCCC1[NH-].[NH-]C1CCCCC1[NH-].[OH-].[OH-].[OH-].[Pt+4].[Pt+4].[Pt+4] (centres undefined)
dose: 0.25 mg/kg/injection, schedule: Q01DX009 (ip), vehicle: water
  T/C: 109 % of control and 119 % of control
dose: 0.5 mg/kg/injection, schedule: Q01DX009 (ip), vehicle: water
  T/C: 113 % of control and 123 % of control

## O=C(O)C(O)C(O)C(O)C(O)C(=O)O (centres undefined)
[2]
  T/C: 100 % of control
dose: 600.0 mg/kg/injection, schedule: Q01DX009 (ip), vehicle: Klucel (hydroxypropylcellulose) (HPC)
  T/C: 93 % of control
dose: 900.0 mg/kg/injection, schedule: Q01DX009 (ip), vehicle: Klucel (hydroxypropylcellulose) (HPC)
  T/C: 91 % of control

## CCCCCCCC/C=C\CCCCCCCC(=O)N(C)CC(=O)O
dose: 12.5 mg/kg/injection, schedule: Q01DX009 (ip), vehicle: saline with Tween-80
  T/C: 118 % of control
[3]
  T/C: 105 % of control
[4]
  T/C: 104 % of control

## CCO/C=C1\SC(=S)N(c2ccc(OCC)cc2)C1=O
[5]
  T/C: 92 % of control

## O=[N+]([O-])O.[Ga]
[6]
  T/C: 102 % of control
[7]
  T/C: 92 % of control

## COc1ccc(NC(=O)Oc2ccc(Cl)c(C)c2)cc1
[8]
  T/C: 116 % of control
dose: 400.0 mg/kg/injection, schedule: Q01DX009 (ip), vehicle: saline with Tween-80
  T/C: 105 % of control

## CC(C)C[NH-].CC(C)C[NH-].O.O.[Cl][Pt+2][Cl]
dose: 10.0 mg/kg/injection, schedule: Q01DX009 (ip), vehicle: other
  T/C: 151 % of control
dose: 30.0 mg/kg/injection, schedule: Q01DX009 (ip), vehicle: other
  T/C: 160 % of control
dose: 40.0 mg/kg/injection, schedule: Q01DX009 (ip), vehicle: other
  T/C: 214 % of control
dose: 50.0 mg/kg/injection, schedule: Q01DX009 (ip), vehicle: other
  T/C: 169 % of control

## Nc1nc(N=Nc2ccc(O)cc2)cc(=O)[nH]1
dose: 100.0 mg/kg/injection, schedule: Q01DX009 (ip), vehicle: other
  T/C: 109 % of control
dose: 200.0 mg/kg/injection, schedule: Q01DX009 (ip), vehicle: other
  T/C: 105 % of control
dose: 400.0 mg/kg/injection, schedule: Q01DX009 (ip), vehicle: other
  T/C: 87 % of control

## CN(C)CCCN1c2ccccc2Sc2ccccc21
dose: 4.6 mg/kg/injection, schedule: Q01DX009 (ip), vehicle: saline
  T/C: 111 % of control
dose: 9.3 mg/kg/injection, schedule: Q01DX009 (ip), vehicle: saline
  T/C: 111 % of control
dose: 18.75 mg/kg/injection, schedule: Q01DX009 (ip), vehicle: saline with Tween-80
  T/C: 101 % of control
dose: 18.75 mg/kg/injection, schedule: Q01DX009 (ip), vehicle: saline
  T/C: 120 % of control
dose: 35.5 mg/kg/injection, schedule: Q01DX009 (ip), vehicle: saline
  T/C: 111 % of control
dose: 37.5 mg/kg/injection, schedule: Q01DX009 (ip), vehicle: saline with Tween-80
  T/C: 97 % of control
dose: 75.0 mg/kg/injection, schedule: Q01DX009 (ip), vehicle: saline with Tween-80
  T/C: 95 % of control

## COc1ccc(COC=O)cc1
[9]
  T/C: 100 % of control
[5]
  T/C: 109 % of control
[10]
  T/C: 106 % of control

## CC(=O)O[C@@H]1CO[C@H]2O[C@H]3[C@@H](C(C=O)=C[C@H](O)[C@@H]4C5=C(C(C)C)CC[C@]5(C)CC[C@@]34C)[C@@]2(O)C1=O
dose: 0.75 mg/kg/injection, schedule: Q01DX009 (ip), vehicle: Klucel (hydroxypropylcellulose) (HPC)
  T/C: 94 % of control
[11]
  T/C: 100 % of control
dose: 6.25 mg/kg/injection, schedule: Q01DX009 (ip), vehicle: Klucel (hydroxypropylcellulose) (HPC)
  T/C: 89 % of control
[1]
  T/C: 86 % of control

## CC[As](=O)(O)CC
[6]
  T/C: 97 % of control
[7]
  T/C: 103 % of control
[12]
  T/C: 105 % of control

## CCOc1ccc([NH-])c([NH-])c1.[Cl][Pt+2][Cl]
dose: 2.5 mg/kg/injection, schedule: Q01DX009 (ip), vehicle: distilled water + Tween-80
  T/C: 115 % of control
dose: 5.0 mg/kg/injection, schedule: Q01DX009 (ip), vehicle: distilled water + Tween-80
  T/C: 115 % of control
dose: 10.0 mg/kg/injection, schedule: Q01DX009 (ip), vehicle: distilled water + Tween-80
  T/C: 117 % of control
dose: 20.0 mg/kg/injection, schedule: Q01DX009 (ip), vehicle: distilled water + Tween-80
  T/C: 102 % of control

## Cc1ccc(Cl)cc1NC(=O)c1ccccc1
dose: 75.0 mg/kg/injection, schedule: Q01DX009 (ip), vehicle: Klucel (hydroxypropylcellulose) (HPC)
  T/C: 93 % of control
dose: 150.0 mg/kg/injection, schedule: Q01DX009 (ip), vehicle: Klucel (hydroxypropylcellulose) (HPC)
  T/C: 104 % of control
[2]
  T/C: 105 % of control

## CC(C)(C)OC(=O)C(CC(=O)O)NC(=O)OCc1ccccc1 (centres undefined) (tested in a mixture with another compound)
dose: 15.0 mg/kg/injection, schedule: Q01DX009 (ip), vehicle: saline
  T/C: 107 % of control
dose: 30.0 mg/kg/injection, schedule: Q01DX009 (ip), vehicle: saline
  T/C: 102 % of control
dose: 60.0 mg/kg/injection, schedule: Q01DX009 (ip), vehicle: saline
  T/C: 108 % of control

## Cc1ccc(C2NC(=O)c3ccccc3N2)c(C)c1 (centres undefined)
[9]
  T/C: 109 % of control
[5]
  T/C: 109 % of control
[10]
  T/C: 109 % of control

## Nc1n[nH]c(C(=O)O)n1
[9]
  T/C: 97 % of control
[5]
  T/C: 97 % of control
[10]
  T/C: 97 % of control

## CCC(C)(CC)OC(N)=O
[3]
  T/C: 112 % of control
dose: 25.0 mg/kg/injection, schedule: Q01DX009 (ip), vehicle: saline
  T/C: 95 % of control
[4]
  T/C: 112 % of control
[6]
  T/C: 95 % of control
dose: 100.0 mg/kg/injection, schedule: Q01DX009 (ip), vehicle: saline with Tween-80
  T/C: 105 % of control
[7]
  T/C: 100 % of control
[8]
  T/C: 104 % of control
[12]
  T/C: 95 % of control

## CC(C)(C#N)N1CCCCC1
dose: 0.03 mg/kg/injection, schedule: Q01DX009 (ip), vehicle: saline
  T/C: 97 % of control
dose: 0.07 mg/kg/injection, schedule: Q01DX009 (ip), vehicle: saline
  T/C: 104 % of control
dose: 0.15 mg/kg/injection, schedule: Q01DX009 (ip), vehicle: saline
  T/C: 98 % of control
dose: 2.5 mg/kg/injection, schedule: Q01DX009 (ip), vehicle: saline
  T/C: 102 % of control

## NC(=S)SCCC(=O)O
[9]
  T/C: 96 % of control
[5]
  T/C: 86 % of control

## C(=P(c1ccccc1)(c1ccccc1)c1ccccc1)[P+](c1ccccc1)(c1ccccc1)c1ccccc1
[11]
  T/C: 111 % of control
dose: 6.25 mg/kg/injection, schedule: Q01DX009 (ip), vehicle: suspension in saline
  T/C: 157 % of control

## COc1ccc([I+]c2ccccc2)cc1
dose: 0.75 mg/kg/injection, schedule: Q01DX009 (ip), vehicle: saline with Tween-80
  T/C: 95 % of control
dose: 1.5 mg/kg/injection, schedule: Q01DX009 (ip), vehicle: saline with Tween-80
  T/C: 97 % of control
dose: 3.0 mg/kg/injection, schedule: Q01DX009 (ip), vehicle: saline with Tween-80
  T/C: 102 % of control
dose: 6.0 mg/kg/injection, schedule: Q01DX009 (ip), vehicle: saline with Tween-80
  T/C: 93 % of control

## COC(CCC(C)C1OC23CC(OC(=O)CC(C(C)O)OC(=O)CC(O)(O2)C(C)CC3(C)C)C1C)c1cccc(O)c1 (centres undefined)
dose: 12.5 micrograms/kg/injection, schedule: Q01DX009 (ip), vehicle: other
  T/C: 103 % of control
dose: 25.0 micrograms/kg/injection, schedule: Q01DX009 (ip), vehicle: other
  T/C: 101 % of control
dose: 50.0 micrograms/kg/injection, schedule: Q01DX009 (ip), vehicle: other
  T/C: 97 % of control
dose: 100.0 micrograms/kg/injection, schedule: Q01DX009 (ip), vehicle: other
  T/C: 101 % of control
